# Measurements taken from PMC10141580, “Cyclic Dichalcogenides Extend the Reach of Bioreductive Prodrugs to Harness Thiol/Disulfide Oxidoreductases: Applications to seco-Duocarmycins Targeting the Thioredoxin System” (ACS Central Science, 2023).
# Read-outs that look alike come from different tables or passages of the source.
# Assays:
# [1] = system: NCI-60 standardized human tumor cell line panel; experiment: cells; type: cell-based
# MEF TrxR1-ko cells = experiment: Resazurin cytotoxicity assay, MEF TrxR1 knockout, 72 h; settings: MEF TrxR1-ko vs wt (fl/fl)
# From the text: A TrxR1 knockout (ko) in mouse embryonic fibroblast (MEF) cells is, however, accessible. We compared its prodrug sensitivity to that of its parental line[49] (wild-type, wt), on the basis that TrxR1-ko should leave most Trx1 in its oxidized state (only a fraction of it can be maintained in the reduced state by alternative reductants such as Grx2),[50] so prodrugs relying on the cytosolic thioredoxin system (Trx1/TrxR1) for most of their bioreductive activation in long-term assays will have lower potency in TrxR1-ko cells.
# MEF cells (ko vs. wt) we r e treated with prodrugs of the CBI-TMI and CBI-AZI series for
# 72 h at concentrations from 10 pm t o 3 0 µM at 27 incremental single concentrations depending on expected
# potencies of the constructs. Data from at least 3 individual experiments was combined (no error bars shown for
# clarity) for each cell line.
# [2] = cell line A549/ATCC (LC:A549/ATCC), TMI sheet
# [3] = cell line BT-549 (BR:BT-549), TMI sheet
# [4] = cell line CCRF-CEM (LE:CCRF-CEM), TMI sheet
# [5] = cell line COLO 205 (CO:COLO 205), TMI sheet
# [6] = cell line EKVX (LC:EKVX), TMI sheet
# [7] = cell line HCC-2998 (CO:HCC-2998), TMI sheet
# [8] = cell line HCT-15 (CO:HCT-15), TMI sheet
# [9] = cell line HCT-116 (CO:HCT-116), TMI sheet
# [10] = cell line HL-60(TB) (LE:HL-60(TB)), TMI sheet
# [11] = cell line HOP-62 (LC:HOP-62), TMI sheet
# [12] = cell line HOP-92 (LC:HOP-92), TMI sheet
# [13] = cell line HT29 (CO:HT29), TMI sheet
# [14] = cell line K-562 (LE:K-562), TMI sheet
# [15] = cell line KM12 (CO:KM12), TMI sheet
# [16] = cell line LOX IMVI (ME:LOX IMVI), TMI sheet
# [17] = cell line M14 (ME:M14), TMI sheet
# [18] = cell line MALME-3M (ME:MALME-3M), TMI sheet
# [19] = cell line MCF7 (BR:MCF7), TMI sheet
# [20] = cell line MDA-MB-435 (ME:MDA-MB-435), TMI sheet
# [21] = cell line MOLT-4 (LE:MOLT-4), TMI sheet
# [22] = cell line NCI-H23 (LC:NCI-H23), TMI sheet
# [23] = cell line NCI-H226 (LC:NCI-H226), TMI sheet
# [24] = cell line RPMI-8226 (LE:RPMI-8226), TMI sheet
# [25] = cell line SF-539 (CNS:SF-539), TMI sheet
# [26] = cell line SK-MEL-5 (ME:SK-MEL-5), TMI sheet
# [27] = cell line SK-MEL-28 (ME:SK-MEL-28), TMI sheet
# [28] = cell line SNB-19 (CNS:SNB-19), TMI sheet
# [29] = cell line SR (LE:SR), TMI sheet
# [30] = cell line SW-620 (CO:SW-620), TMI sheet
# [31] = cell line T-47D (BR:T-47D), TMI sheet
# [32] = cell line U251 (CNS:U251), TMI sheet
# [33] = cell line UACC-62 (ME:UACC-62), TMI sheet
# [34] = cell line UACC-257 (ME:UACC-257), TMI sheet
compound,measurement,setting,value
COc1cc2cc(C(=O)N3CC(CCl)c4c3cc(OC(=O)N3CCN(C)C5CSSCC53)c3ccccc43)[nH]c2c(OC)c1OC (mixture of isomers) [Me-SS66C-CBI-TMI],GI50,"[1]; UACC-62, read-out: GI50",0.15 µM
same,GI50,"[1]; UACC-257, read-out: GI50",0.5 µM
same,NCI-60 screening: Log(GI50),[1]; [2],-6.74
same,NCI-60 screening: Log(RedIndex),[1]; [2],1.04
same,NCI-60 screening: Log(GI50),[1]; [3],-6.78
same,NCI-60 screening: Log(RedIndex),[1]; [3],0.98
same,GI50,"[1]; cell line BT-549 (BR:BT-549), TMI sheet, read-out: NCI-60 screening: Raw GI50",0.17 µM
same,NCI-60 screening: Log(GI50),[1]; [4],-6.98
same,NCI-60 screening: Log(RedIndex),[1]; [4],0.98
same,NCI-60 screening: Log(GI50),[1]; [5],-6.48
same,NCI-60 screening: Log(RedIndex),[1]; [5],0.62
same,NCI-60 screening: Log(GI50),[1]; [6],-6.64
same,NCI-60 screening: Log(RedIndex),[1]; [6],0.93
same,GI50,"[1]; cell line EKVX (LC:EKVX), TMI sheet, read-out: NCI-60 screening: Raw GI50",0.23 µM
same,NCI-60 screening: Log(GI50),[1]; [7],-6.84
same,NCI-60 screening: Log(RedIndex),[1]; [7],1.02
same,GI50,"[1]; cell line HCC-2998 (CO:HCC-2998), TMI sheet, read-out: NCI-60 screening: Raw GI50",0.14 µM
same,NCI-60 screening: Log(GI50),[1]; [8],-6.61
same,NCI-60 screening: Log(RedIndex),[1]; [8],0.85
same,GI50,"[1]; cell line HCT-15 (CO:HCT-15), TMI sheet, read-out: NCI-60 screening: Raw GI50",0.25 µM
same,NCI-60 screening: Log(GI50),[1]; [9],-6.73
same,NCI-60 screening: Log(RedIndex),[1]; [9],0.9
same,NCI-60 screening: Log(GI50),[1]; [10],-7.28
same,NCI-60 screening: Log(RedIndex),[1]; [10],1.16
same,NCI-60 screening: Log(GI50),[1]; [11],-6.69
same,NCI-60 screening: Log(RedIndex),[1]; [11],0.46
same,GI50,"[1]; cell line HOP-62 (LC:HOP-62), TMI sheet, read-out: NCI-60 screening: Raw GI50",0.2 µM
same,NCI-60 screening: Log(GI50),[1]; [12],-6.62
same,NCI-60 screening: Log(RedIndex),[1]; [12],1.02
same,GI50,"[1]; cell line HOP-92 (LC:HOP-92), TMI sheet, read-out: NCI-60 screening: Raw GI50",0.24 µM
same,NCI-60 screening: Log(GI50),[1]; [13],-6.65
same,NCI-60 screening: Log(RedIndex),[1]; [13],0.83
same,GI50,"[1]; cell line HT29 (CO:HT29), TMI sheet, read-out: NCI-60 screening: Raw GI50",0.23 µM
same,NCI-60 screening: Log(GI50),[1]; [14],-6.4
same,NCI-60 screening: Log(RedIndex),[1]; [14],0.23
same,NCI-60 screening: Log(GI50),[1]; [15],-5.96
same,NCI-60 screening: Log(RedIndex),[1]; [15],0.27
same,NCI-60 screening: Log(GI50),[1]; [16],-6.78
same,NCI-60 screening: Log(RedIndex),[1]; [16],0.82
same,GI50,"[1]; cell line LOX IMVI (ME:LOX IMVI), TMI sheet, read-out: NCI-60 screening: Raw GI50",0.17 µM
same,NCI-60 screening: Log(GI50),[1]; [17],-6.6
same,NCI-60 screening: Log(RedIndex),[1]; [17],0.78
same,GI50,"[1]; cell line M14 (ME:M14), TMI sheet, read-out: NCI-60 screening: Raw GI50",0.25 µM
same,NCI-60 screening: Log(GI50),[1]; [18],-6.67
same,NCI-60 screening: Log(RedIndex),[1]; [18],0.87
same,NCI-60 screening: Log(GI50),[1]; [19],-7.55
same,NCI-60 screening: Log(RedIndex),[1]; [19],1.05
same,GI50,"[1]; cell line MCF7 (BR:MCF7), TMI sheet, read-out: NCI-60 screening: Raw GI50",0.028 µM
same,NCI-60 screening: Log(GI50),[1]; [20],-6.08
same,NCI-60 screening: Log(RedIndex),[1]; [20],0.33
same,NCI-60 screening: Log(GI50),[1]; [21],-7.16
same,NCI-60 screening: Log(RedIndex),[1]; [21],0.93
same,NCI-60 screening: Log(GI50),[1]; [22],-7.34
same,NCI-60 screening: Log(RedIndex),[1]; [22],1.02
same,NCI-60 screening: Log(GI50),[1]; [23],-5.99
same,NCI-60 screening: Log(RedIndex),[1]; [23],0.15
same,NCI-60 screening: Log(GI50),[1]; [24],-6.79
same,NCI-60 screening: Log(RedIndex),[1]; [24],0.96
same,GI50,"[1]; cell line RPMI-8226 (LE:RPMI-8226), TMI sheet, read-out: NCI-60 screening: Raw GI50",0.16 µM
same,NCI-60 screening: Log(GI50),"[1]; cell line SF-268 (CNS:SF-268), TMI sheet",-6.76
same,GI50,"[1]; cell line SF-268 (CNS:SF-268), TMI sheet, read-out: NCI-60 screening: Raw GI50",0.17 µM
same,NCI-60 screening: Log(GI50),"[1]; cell line SF-295 (CNS:SF-295), TMI sheet",-6.88
same,GI50,"[1]; cell line SF-295 (CNS:SF-295), TMI sheet, read-out: NCI-60 screening: Raw GI50",0.13 µM
same,NCI-60 screening: Log(GI50),[1]; [25],-6.76
same,NCI-60 screening: Log(RedIndex),[1]; [25],0.88
same,GI50,"[1]; cell line SF-539 (CNS:SF-539), TMI sheet, read-out: NCI-60 screening: Raw GI50",0.17 µM
same,NCI-60 screening: Log(GI50),[1]; [26],-6.78
same,NCI-60 screening: Log(RedIndex),[1]; [26],0.99
same,GI50,"[1]; cell line SK-MEL-5 (ME:SK-MEL-5), TMI sheet, read-out: NCI-60 screening: Raw GI50",0.17 µM
same,NCI-60 screening: Log(GI50),[1]; [27],-6.58
same,NCI-60 screening: Log(RedIndex),[1]; [27],1.14
same,GI50,"[1]; cell line SK-MEL-28 (ME:SK-MEL-28), TMI sheet, read-out: NCI-60 screening: Raw GI50",0.26 µM
same,NCI-60 screening: Log(GI50),[1]; [28],-6.65
same,NCI-60 screening: Log(RedIndex),[1]; [28],1
same,NCI-60 screening: Log(GI50),[1]; [29],-7.43
same,NCI-60 screening: Log(RedIndex),[1]; [29],0.87
same,NCI-60 screening: Log(GI50),[1]; [30],-6.58
same,NCI-60 screening: Log(RedIndex),[1]; [30],0.85
same,GI50,"[1]; cell line SW-620 (CO:SW-620), TMI sheet, read-out: NCI-60 screening: Raw GI50",0.26 µM
same,NCI-60 screening: Log(GI50),[1]; [31],-6.54
same,NCI-60 screening: Log(RedIndex),[1]; [31],0.82
same,NCI-60 screening: Log(GI50),[1]; [32],-6.86
same,NCI-60 screening: Log(RedIndex),[1]; [32],1.04
same,GI50,"[1]; cell line U251 (CNS:U251), TMI sheet, read-out: NCI-60 screening: Raw GI50",0.14 µM
same,NCI-60 screening: Log(GI50),[1]; [33],-6.83
same,NCI-60 screening: Log(RedIndex),[1]; [33],1.02
same,GI50,"[1]; cell line UACC-62 (ME:UACC-62), TMI sheet, read-out: NCI-60 screening: Raw GI50",0.15 µM
same,NCI-60 screening: Log(GI50),[1]; [34],-6.3
same,NCI-60 screening: Log(RedIndex),[1]; [34],0.6
same,mean reductive index,"[1]; mean over NCI cell lines, vs P-CC60",ca. 7
same,GI50,[1]; read-out: NCI-60 screening: Raw GI50,0.24 µM
same,fold change of potency wt → ko,MEF TrxR1-ko cells,4 ×
